Source: ChEMBL document CHEMBL2396546, “Australian marine sponge alkaloids as a new class of glycine-gated chloride channel receptor modulator” (Bioorg Med Chem, 2013)

Legend:
Type in all cases: cell-based
[1] = biological target: T1, Glycine receptor subunit alpha-3 (Homo sapiens, UniProt O75311); test: Modulation of recombinant GlyR-alpha3 (unknown origin) expressed in HEK293 cells assessed as inhibition of glycine-induced current by automated planar patch-clamp automated electrophysiology assay
T1 sequence (O75311 whole entry): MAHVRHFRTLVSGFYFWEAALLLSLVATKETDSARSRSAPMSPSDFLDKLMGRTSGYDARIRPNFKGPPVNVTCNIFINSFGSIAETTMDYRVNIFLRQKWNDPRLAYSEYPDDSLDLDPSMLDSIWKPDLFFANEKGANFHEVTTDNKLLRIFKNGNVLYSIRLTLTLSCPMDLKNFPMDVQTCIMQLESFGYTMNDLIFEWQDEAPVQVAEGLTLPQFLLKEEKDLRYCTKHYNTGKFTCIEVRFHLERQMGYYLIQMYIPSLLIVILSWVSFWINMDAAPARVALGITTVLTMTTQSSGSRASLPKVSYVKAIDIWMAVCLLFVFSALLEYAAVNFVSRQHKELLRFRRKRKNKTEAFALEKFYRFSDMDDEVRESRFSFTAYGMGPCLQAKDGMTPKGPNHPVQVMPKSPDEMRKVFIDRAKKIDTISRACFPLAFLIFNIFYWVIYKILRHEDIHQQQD

[2] = biological target: T2, Glycine receptor subunit alpha-1 (Homo sapiens, UniProt P23415); test: Modulation of recombinant GlyR-alpha1 (unknown origin) expressed in HEK293 cells assessed as inhibition of glycine-induced current by automated planar patch-clamp automated electrophysiology assay
T2 sequence (P23415 whole entry): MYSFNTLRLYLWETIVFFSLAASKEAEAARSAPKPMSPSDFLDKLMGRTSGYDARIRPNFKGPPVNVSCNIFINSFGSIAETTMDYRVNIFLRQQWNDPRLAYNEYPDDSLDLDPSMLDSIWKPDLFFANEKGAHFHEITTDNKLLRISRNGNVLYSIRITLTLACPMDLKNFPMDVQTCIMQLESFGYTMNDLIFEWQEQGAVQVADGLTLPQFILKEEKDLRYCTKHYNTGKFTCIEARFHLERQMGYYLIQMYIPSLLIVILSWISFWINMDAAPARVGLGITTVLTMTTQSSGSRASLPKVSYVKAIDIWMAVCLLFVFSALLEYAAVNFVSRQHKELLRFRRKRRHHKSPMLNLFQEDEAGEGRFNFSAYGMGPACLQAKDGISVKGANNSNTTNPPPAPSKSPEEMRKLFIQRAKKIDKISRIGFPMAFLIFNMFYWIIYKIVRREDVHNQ

[3] = biological target: T3, Glycine receptor subunit alpha-1 (Homo sapiens) (UniProt P23415); test: Modulation of recombinant GlyR-alpha1 (unknown origin) expressed in HEK293 cells assessed as inhibition of glycine-induced current at 1 uM by automated planar patch-clamp automated electrophysiology assay
T3 sequence (whole entry): T2 sequence (P23415 whole entry)

## CN1C(=O)NC(=O)/C1=C\c1c[nH]c2ccccc12
[1]
  IC50: 33.9 µM
[2]
  IC50: 8.8 µM

## CN1C(=N)N(C)[C@@]2(C1=O)c1[nH]c3ccccc3c1C[C@@]1(C(=O)N(C)C(=N)N1C)[C@@H]2c1c[nH]c2ccccc12
[1]
  IC50: > 300 µM
[2]
  IC50: 25.9 µM
[3]
  inhibition: 126%

## CN1C(=O)/C(=C\c2c[nH]c3ccccc23)N(C)C1=O
[1]
  IC50: 67 µM
[2]
  IC50: > 200 µM
